The test system of series [1] is overall protein abundance. As to the kind of experiment: Global proteomic analysis. Type of series: cell-based. Particulars: 5 µM compound vs vehicle, three independent samples each. From the text: (A) Input IP .LM123L T-!=> V,!=>
MW Veh Cpd 2 Cpd 2 Veh !!!!!"#$$#B -45665 T4--8 -4;?,;
Progerin !!!!!E#)*+,- ,V4:-Ise::::: :etpoooomX,?4?V:enst9mmqo,848; !?#$B?CDEFCBG+I-+G.BLG+ […]
!!!!!*+,- 84;66L<-,VI9e::::::esnnsmqmXV4-;VL<-,?:estm9XpoX?4T-?L<-,8 FFFFF0BNNB$ :em9Xn […]
IgG heavy chain Iqep:m:p ne:qmppo:m :esmpqtmpn FFFFFSB#T89:I9em:m […]
50- Iqe9mt:: :eoX9ppnnm :eoqpq9s9p X9YF8=F>.-B2?E+FE??+E?@BBCA
FFFFF0BNNB$ rrrFNBF:eqoqs
Cpd 2 Veh FFFFFSB#T89:rrr […]
Vehicle .LM123L T-!=>(%C" V,!=> […]
50- !!!!!C#' -4TT8VLamin C -4T:T; (%$$-4-:?5T '()*+
!!!!!E#)*+,- ,V4:-β-Actin ,?4?V ,848; D(%
37- !!!!!*+,- 84;66L<-,V V4-;VL<-,? ?4T-?L<-,8 ,-)*+ […]
Abundance Ratio (log2): Ve h / Cpd 2
Supporting Figure S2. Ternary complex formation, progerin engagement and global selectivity of compound 2. (A) Progeroid […]/G609G fibroblasts treated with vehicle (0.1% DMSO) or compound 2 (5 µM) were subjected to immunoprecipitation with an anti-CRBN antibody and then immunoblotted with an anti-progerin antibody. Bar graph represents mean±sem of 2 independent experiments. (B) Representative progerin immunoblotting of the soluble fraction of LmnaG609G/G609G cell homogenates treated with […]
indicated temperature. (C) Thermal denaturation curves of progerin in the presence of vehicle (black) or compound 2 at 10 µM (red, DTm=0.7±0.1 °C) or 25 µM (blue, […]
of compound 2 (IC50=7±1 µM). […]

The target in the next series is human serum albumin (Homo sapiens, UniProt P02768). The series can be described thus: Human serum albumin binding. The source says:
TABLE 1 Pharmacokinetic parameters of PROTAC 2. | column: HSA binding ^c

Series [2] relates to Lmna^G609G/G609G fibroblasts. The series can be described thus: RT-qPCR of senescence markers in mouse progeroid cells. Particulars: 5 µM. Type of series: cell-based. How it is done:
Confocal fluorescence microscopy images are representative of 2 independent experiments. […] Representative cropped immunoblots are shown. […] MW, molecular weight (in kDa) markers. (C) PROTAC 2 decreases senescence‐associated β‐galactosidase (SA‐βgal) activity, interleukin (IL) 1α and p16 senescent markers. Lmna^G609G/G609G (G609G) or Lmna^+/+ (WT) fibroblasts were incubated with vehicle or compound 2 (5 µM). […] Data were analysed using one‐way ANOVA followed by Dunnett's post–hoc test. ^*, p < 0.05; ^**, p < 0.01, ^***, p < 0.001, ^****, p < 0.0001 vs G609G cells. […]
ferrocyanide, 0.6 mL 5 M NaCl, 0.2 mL 0.2 M MgCl2, (all from Sigma Aldrich) and 6.2 mL of deionized water in a total volume of 20 mL] in the dark in a humidified incubator at 37 °C for 24 h without CO2 supply. Then, an equal volume of the supernatant of each well was transferred to a new 96-well plate for fluorescence measurement. The resultant production of fluorescein was measured using a FluoStar Optima instrument (BMG Labtech) with an excitation of 485 nm and emission at 535 nm. […]
Total RNA was extracted by RNAeasy Mini Kit (Qiagen) according to the manufacturer instructions and subsequently quantified using the NanoPhotometer N60 (Implen). […] Quantitative real-time PCR was run in the QuantStudio 7FLEX (Applied Biosystems) system and results were normalized according to β-actin quantification. […]

Chain of human serum albumin (P02768 25-609): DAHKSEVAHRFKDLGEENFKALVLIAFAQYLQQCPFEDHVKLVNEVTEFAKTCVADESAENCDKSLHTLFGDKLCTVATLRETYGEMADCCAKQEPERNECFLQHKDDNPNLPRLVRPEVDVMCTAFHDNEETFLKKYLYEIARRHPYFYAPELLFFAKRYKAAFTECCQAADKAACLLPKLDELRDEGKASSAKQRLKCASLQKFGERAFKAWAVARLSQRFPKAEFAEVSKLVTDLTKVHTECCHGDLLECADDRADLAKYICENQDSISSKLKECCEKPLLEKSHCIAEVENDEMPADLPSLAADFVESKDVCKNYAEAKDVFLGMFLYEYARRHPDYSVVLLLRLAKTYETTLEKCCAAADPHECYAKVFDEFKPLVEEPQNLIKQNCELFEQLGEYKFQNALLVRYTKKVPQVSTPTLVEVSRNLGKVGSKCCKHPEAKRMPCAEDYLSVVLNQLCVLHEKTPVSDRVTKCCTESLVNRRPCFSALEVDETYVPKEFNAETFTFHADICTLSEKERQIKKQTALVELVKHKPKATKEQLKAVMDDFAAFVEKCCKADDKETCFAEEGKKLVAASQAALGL

Turning to `CC1(C)Oc2cc3oc(=O)ccc3cc2C[C@@H]1OC(=O)CCCCCNc1cccc2c1C(=O)N(C1CCC(=O)NC1=O)C2=O` (some centres unmarked) [compound 2], in series [1], the “alterations in overall protein abundance (global proteomics)” value is recorded as “did not identify significant alterations in overall protein abundance”. On human serum albumin, this compound came in with an HSA binding of 99%. In addition, at human serum albumin (read-out: HSA binding K D), the Kd turned out to be 5.8 µM. For the same compound, in series [2], the “interleukin (IL) 1α senescent marker” value is listed as “significantly reduced” and the p16 senescent marker entry is “significantly reduced”.

These data come from article PMC13252604, “First Generation Proteolysis Targeting Chimeras (PROTACs) for the Treatment of Progeria” (Advanced Science, 2026).
